Experimental data reported in ChEMBL document CHEMBL3272053, “(exo, exo)-2-Aryltropane-3-carboxylic esters, hypoglycemic agents with accompanying analgesic activity” (J Med Chem, 1978).
The source made the active and inactive calls. The calls are words filed in the database; no cut-off is given here.

Assays:
Rattus norvegicus [1] = assay: Hypoglycemic activity in Sprague-Dawley rat assessed as reduction of blood glucose level at 89 mg/kg, po by glucagon-impaired glucose disposal test relative to control; assay type: functional; design: scale not given: the % may be the effect or the level left
Rattus norvegicus [2] = assay: Hypoglycemic activity in Sprague-Dawley rat assessed as reduction of blood glucose level at 100 mg/kg, po by glucagon-impaired glucose disposal test relative to control; assay type: functional; design: scale not given: the % may be the effect or the level left
Mus musculus [3] = assay: Analgesic activity in sc dosed Swiss-Webster mouse assessed as reduction of acetylcholine-induced writhing; assay type: functional; settings: Mus musculus, Swiss-Webster, sc; read-out: ED50
Rattus norvegicus [4] = species: Rattus norvegicus; assay: Narcotic analgesic activity in Sprague-Dawley rat at 15 mins by D'Amour-Smith tail-flick test in presence of microsomal enzyme inhibitor SKF 525-A; assay type: functional, organism-based
Rattus norvegicus [5] = assay: Hypoglycemic activity in Sprague-Dawley rat assessed as reduction of blood glucose level at 88 mg/kg, po by glucagon-impaired glucose disposal test in presence of opioid antagonist nalorphine; assay type: functional, organism-based; design: dose 88 mg/kg
Rattus norvegicus [6] = assay: Narcotic analgesic activity in fasted Sprague-Dawley rat at 120 mg/kg,sc measured at 30 mins by D'Amour-Smith tail-flick test in presence of opioid antagonist nalorphine; assay type: functional, organism-based; design: dose 120 mg/kg
Rattus norvegicus [7] = assay: Hypoglycemic activity in Sprague-Dawley rat assessed as reduction of blood glucose level at 88 mg/kg, po by glucagon-impaired glucose disposal test in presence of microsomal enzyme inhibitor SKF 525-A; assay type: functional, organism-based; design: dose 88 mg/kg
Rattus norvegicus [8] = assay: Toxicity in Sprague-Dawley rat assessed as hyperexcitability at 240 mg/kg, po; assay type: organism-based; design: dose 240 mg/kg, route oral; settings: in vivo
Rattus norvegicus [9] = assay: Toxicity in Sprague-Dawley rat assessed as tremor at 240 mg/kg, po; assay type: organism-based; design: dose 240 mg/kg, route oral; settings: in vivo
Rattus norvegicus [10] = assay: Narcotic analgesic activity in fasted Sprague-Dawley rat at 240 mg/kg, po measured at 15 mins by D'Amour-Smith tail-flick test relative to control; assay type: functional
Rattus norvegicus [11] = assay: Toxicity in Sprague-Dawley rat assessed as rigidity at 240 mg/kg, po; assay type: organism-based; design: dose 240 mg/kg, route oral; settings: in vivo
Rattus norvegicus [12] = assay: Hypoglycemic activity in glucose loaded Sprague-Dawley rat assessed as reduction of blood glucose level at 100 mg/kg, po in presence of microsomal enzyme inhibitor SKF 525-A; assay type: functional, organism-based; design: dose 100 mg/kg
Rattus norvegicus [13] = assay: Hypoglycemic activity in glucose loaded Sprague-Dawley rat assessed as reduction of blood glucose level at 100 mg/kg, po relative to control; assay type: functional; design: scale not given: the % may be the effect or the level left
Mus musculus [14] = assay: Analgesic activity in Swiss-Webster mouse assessed as reduction of acetylcholine-induced writhing at 75 mg/kg, sc relative to control; assay type: functional; design: scale not given: the % may be the effect or the level left; settings: route subcutaneous
Rattus norvegicus [15] = assay: Narcotic analgesic activity in fasted Sprague-Dawley rat at 240 mg/kg, po measured at 60 mins by D'Amour-Smith tail-flick test relative to control; assay type: functional
Mus musculus [16] = assay: Analgesic activity in Swiss-Webster mouse assessed as reduction of acetylcholine-induced writhing at 25 mg/kg, sc relative to control; assay type: functional; design: scale not given: the % may be the effect or the level left; settings: route subcutaneous
Rattus norvegicus [17] = assay: Hypoglycemic activity in glucose/glycogen loaded Sprague-Dawley rat assessed as reduction of blood glucose level at 87 mg/kg, po; assay type: functional, organism-based; design: dose 87 mg/kg
Rattus norvegicus [18] = assay: Hypoglycemic activity in Sprague-Dawley rat assessed as reduction of blood glucose level at 88 mg/kg, po by glucagon-impaired glucose disposal test relative to control; assay type: functional; design: scale not given: the % may be the effect or the level left
Rattus norvegicus [19] = assay: Toxicity in Sprague-Dawley rat assessed as convulsion at 240 mg/kg, po; assay type: organism-based; design: dose 240 mg/kg, route oral; settings: in vivo
Rattus norvegicus [20] = assay: Hypoglycemic activity in glucose loaded Sprague-Dawley rat assessed as reduction of blood glucose level at 89 mg/kg, po in presence of microsomal enzyme inhibitor SKF 525-A; assay type: functional, organism-based; design: dose 89 mg/kg
Rattus norvegicus [21] = assay: Hypoglycemic activity in glucose loaded Sprague-Dawley rat assessed as reduction of blood glucose level at 89 mg/kg, po relative to control; assay type: functional; design: scale not given: the % may be the effect or the level left
Rattus norvegicus [22] = assay: Narcotic analgesic activity in po dosed fasted Sprague-Dawley rat measured at 15 mins by D'Amour-Smith tail-flick test; assay type: functional; settings: 0.25 h
Mus musculus [23] = assay: Analgesic activity in po dosed Swiss-Webster mouse assessed as reduction of acetylcholine-induced writhing; assay type: functional
Mus musculus [24] = assay: Toxicity in Swiss-Webster mouse assessed as stimulation of straub tail at 150 mg/kg, po after 15 to 25 mins; assay type: organism-based; design: dose 150 mg/kg, route oral; settings: in vivo
Rattus norvegicus [25] = assay: Hypoglycemic activity in sc dosed fasted Sprague-Dawley rat assessed as reduction of blood glucose level measured for 0.5 to 2 hrs; assay type: functional, organism-based
Rattus norvegicus [26] = assay: Narcotic analgesic activity in fed Sprague-Dawley rat at 120 mg/kg, sc measured at 30 mins by D'Amour-Smith tail-flick test; assay type: functional; settings: route subcutaneous

CC(C)OC(=O)[C@H]1C[C@H]2CC[C@H]([C@H]1c1ccccc1)N2C.Cl
Activity (Rattus norvegicus [1]): 28%

CC[N+]12Cc3ccsc3[C@H]3[C@@H](C(=O)OC)C[C@H]1CC[C@H]32
Activity (Rattus norvegicus [2]): <20% | ED50 (Mus musculus [3]): 3.8 mg/kg

COC(=O)[C@H]1C[C@H]2CC[C@H]([C@H]1c1cccs1)N2C
Activity (Rattus norvegicus [4]): inactive | Activity (Rattus norvegicus [5]): Active | Activity (Rattus norvegicus [6]): inactive | Activity (Rattus norvegicus [7]): inactive

CCOCCN1[C@@H]2CC[C@@H]1[C@@H](c1cccs1)[C@@H](C(=O)OC)C2
Activity (Rattus norvegicus [8]): Toxic | Activity (Rattus norvegicus [9]): Toxic | Activity (Rattus norvegicus [10]): 100% | Activity (Rattus norvegicus [11]): Toxic | Activity (Rattus norvegicus [12]): inactive | Activity (Rattus norvegicus [13]): 73% | Activity (Mus musculus [14]): 67%

CCCCCOC(=O)[C@H]1C[C@H]2CC[C@H]([C@H]1c1cccs1)N2C
Activity (Rattus norvegicus [15]): <20% | Activity (Rattus norvegicus [10]): <20% | Activity (Mus musculus [16]): 27% | Activity (Rattus norvegicus [2]): <20%

COC(=O)[C@H]1C[C@H]2CC[C@H]([C@H]1c1cccc(OC)c1)N2C.Cl
Activity (Rattus norvegicus [1]): 24%

COC(=O)[C@H]1CCCN(C)[C@@H]1c1cccs1 (relative stereo)
Activity (Rattus norvegicus [17]): inactive

COC(=O)[C@H]1C[C@H]2CC[C@H]([C@H]1c1ccc(O)cc1)N2C
Activity (Rattus norvegicus [2]): <20%

COC(=O)[C@H]1C[C@H]2CC[C@@H](N2)[C@H]1c1cccc(O)c1.Cl
Activity (Rattus norvegicus [15]): <20% | Activity (Rattus norvegicus [10]): <20% | Activity (Rattus norvegicus [18]): <20% | ED50 (Mus musculus [3]): 24 mg/kg

CCOC(=O)N(CN1[C@@H]2CC[C@@H]1[C@@H](c1cccs1)[C@@H](C(=O)OC)C2)NC(=O)OC
Activity (Rattus norvegicus [13]): 80%

COC(=O)[C@H]1C[C@H]2CC[C@H]([C@H]1c1cccs1)N2CCO.Cl
Activity (Rattus norvegicus [8]): Toxic | Activity (Rattus norvegicus [19]): Toxic | Activity (Rattus norvegicus [10]): 100% | Activity (Rattus norvegicus [11]): Toxic | Activity (Rattus norvegicus [20]): Active | Activity (Mus musculus [14]): 73% | Activity (Rattus norvegicus [21]): 72%

CCOC(=O)[C@H]1C[C@H]2CC[C@H]([C@H]1c1cccs1)N2C
ED50 (Rattus norvegicus [22]): 95 mg/kg | Activity (Rattus norvegicus [2]): <20% | ED50 (Mus musculus [23]): 21 mg/kg | Activity (Mus musculus [24]): Toxic

COC(=O)[C@H]1C[C@H]2CC[C@H]([C@H]1c1cccs1)N2C (racemic)
Activity (Rattus norvegicus [4]): inactive | Activity (Rattus norvegicus [5]): Active | Activity (Rattus norvegicus [25]): inactive | Activity (Rattus norvegicus [6]): inactive | Activity (Rattus norvegicus [7]): inactive

COC(=O)[C@H]1C[C@H]2CC[C@H]([C@H]1c1cccs1)N2Cc1ccccc1
Activity (Rattus norvegicus [2]): <20% | Activity (Rattus norvegicus [26]): <20% | Activity (Mus musculus [14]): 33%

COC(=O)[C@H]1[C@@H](OC(=O)c2ccccc2)C[C@@H]2CC[C@H]1N2C
Activity (Rattus norvegicus [18]): Active
